Measured values: patent publication US9930889B2, “Synergistic weed control from applications of penoxsulam and mefenacet” (Dow AgroSciences LLC, priority 2012, dated 2018)

Columns and labels:
Experiment in all cases: Field trial in flooded transplanted rice, % visual weed control
Type in all cases: in vivo
[1] = tested on: Eleocharis kuroguwai (kuro-guwai, ELOKU)
From the text: (§1) The (a) penoxsulam or an agriculturally acceptable salt thereof is mixed with or applied in combination with (b) mefenacet or an agriculturally acceptable salt thereof in an amount sufficient to induce a synergistic herbicidal effect. […] As described in the Herbicide Handbook of the Weed Science Society of America, Ninth Edition, 2007, p. 429, ′″synergism′ [is] an interaction of two or more factors such that the effect when combined is greater than the predicted effect based on the response to each factor applied separately.” Synergistic in the herbicide context can mean that the use of (a) and (b) as defined above results in an increased weed control effect compared to the weed control effects that are possible with the use of (a) or (b) alone. In some embodiments, the damage or injury to the undesired vegetation caused by the compositions and methods disclosed herein is evaluated using a scale from 0% to 100%, when compared with the untreated control vegetation, wherein 0% indicates no damage to the undesired vegetation and 100% indicates complete destruction of the undesired vegetation. […] 22 (1967)
(§2) Field trials were conducted in Japan with applications made in the area of naturally occurring weed populations. All treatments were applied using a randomized complete block trial design, with 3 replications per treatment. Plot size was 2 meters (m)×2 m (width×length), with each plot being a separate entity and flooded with water. Rice was transplanted into the plots, and the rice crop was maintained as a normal commercial crop with appropriate fertilizer and maintenance treatments as needed. Rice size at application varied from 4 leaf to 2 tiller stage, and weeds were 1 to 5 leaf stage. All plots were maintained flooded to 3 to 6 centimeter (cm) depth and treatments were applied by hand directly into the flooded plots containing the rice and weeds.
(§3) Treatments consisted of penoxsulam and mefenacet, applied alone or in combination. Penoxsulam was applied as a granule formulation (3.5 grams of active ingredient per kilogram (g ai/kg) granule (GR)) applied directly into the flooded plots, or as a liquid formulation (31 grams of active ingredient per liter (g ai/L) emulsifiable concentrate (EC)) mixed in 1 liter (L) of solution and applied into the flooded plots. Mefenacet, as the commercial product HINOCHLOA® containing 40 g ai/kg GR, was applied directly into the flooded plots.
(§4) The treated plots and control plots were rated blind at various intervals after application. Ratings were based on a scale of 0-100%, as discussed above, wherein 0% indicates complete growth of the undesired vegetation and 100% indicates complete prevention of the undesired vegetation.
(§5) Colby's equation was used to determine the herbicidal effects expected from the mixtures, as described above. The results were measured at the evaluation intervals provided in Table 1 after the application of the compositions (penoxsulam and mefenacet, applied alone or in combination). […] The herbicide tank mix combinations tested, application rates and ratios employed, plant species tested, and results are included in Table 1 below.

[2] = tested on: Echinochloa crus-galli (barnyard grass, ECHCG); conditions: 42 days
From the text: as §1, §2, §3, §4, §5

[3] = tested on: Lindernia procumbens (common false pimpernel, LIDPY); conditions: for Penoxsulam Mean % weed control: 18 g ai/ha
From the text: as §1, §2, §3, §4, §5

[4] = tested on: Sagittaria pygmaea (dwarf arrowhead, SAGPY); conditions: 44 days
From the text: as §1, §2, §3, §4, §5

COc1cnc(OC)n2nc(NS(=O)(=O)c3c(OCC(F)F)cccc3C(F)(F)F)nc12 [Penoxsulam]
Penoxsulam Mean % weed control ([1]; 34 days, 18 g ai/ha): 62% | Penoxsulam Mean % weed control ([1]; 44 days, 70 g ai/ha): 81% | Penoxsulam Mean % weed control ([1]; 52 days, 18 g ai/ha): 34% | Penoxsulam Mean % weed control ([1]; 52 days, 35 g ai/ha): 62% | Penoxsulam Mean % weed control ([1]; 52 days, 70 g ai/ha): 71% | Penoxsulam Mean % weed control ([1]; 61 days, 35 g ai/ha): 49% | Penoxsulam Mean % weed control ([1]; 61 days, 70 g ai/ha): 61% | Penoxsulam Mean % weed control ([2]; 18 g ai/ha): 81% | Penoxsulam Mean % weed control ([3]; 18 days): 73% | Penoxsulam Mean % weed control ([3]; 23 days): 87% | Penoxsulam Mean % weed control ([3]; 24 days): 86% | Penoxsulam Mean % weed control ([3]; 42 days): 83% | Penoxsulam Mean % weed control ([4]; 35 g ai/ha): 82%

CN(C(=O)COc1nc2ccccc2s1)c1ccccc1 [Mefenacet, 2-(2-benzothiazolyloxy)-N-methyl-N-phenylacetamide]
Mefenacet Mean % weed control ([1]; 34 days, 500 g ai/ha): 0% | Mefenacet Mean % weed control ([1]; 34 days, 750 g ai/ha): 0% | Mefenacet Mean % weed control ([1]; 34 days, 1000 g ai/ha): 0% | Mefenacet Mean % weed control ([1]; 44 days, 1000 g ai/ha): 23% | Mefenacet Mean % weed control ([1]; 52 days, 750 g ai/ha): 33% | Mefenacet Mean % weed control ([1]; 52 days, 1000 g ai/ha): 20% | Mefenacet Mean % weed control ([1]; 61 days, 1000 g ai/ha): 0% | Mefenacet Mean % weed control ([2]; 750 g ai/ha): 40% | Mefenacet Mean % weed control ([3]; 18 days, 500 g ai/ha): 43% | Mefenacet Mean % weed control ([3]; 18 days, 750 g ai/ha): 50% | Mefenacet Mean % weed control ([3]; 18 days, 1000 g ai/ha): 57% | Mefenacet Mean % weed control ([3]; 23 days, 500 g ai/ha): 0% | Mefenacet Mean % weed control ([3]; 23 days, 750 g ai/ha): 27% | Mefenacet Mean % weed control ([3]; 24 days, 500 g ai/ha): 0% | Mefenacet Mean % weed control ([3]; 42 days, 500 g ai/ha): 0% | Mefenacet Mean % weed control ([4]; 500 g ai/ha): 0% | Mefenacet Mean % weed control ([4]; 750 g ai/ha): 0%
